According to US20210274788A1, “PESTICIDALLY ACTIVE ISOXAZOLINE D[…] AMIDE GROUP AND AN AZETIDINE SULFONE GROUP” (SYNGENTA CROP PROTECTION AG, priority 2018, published 2021):

What was measured:
Assay type in all cases: in vivo
[1] = system: Euschistus heros (Neotropical Brown Stink Bug); test: Euschistus heros (neotropical brown stink bug), sprayed soybean leaves, N2 nymphs; conditions: 120 h, application rate 200 ppm, 5 days after infestation, read-out: effect in at least one of the two categories (mortality or growth inhibition)
Protocol: Euschistus heros (Neotropical Brown Stink Bug)
Soybean leaves on agar in 24-well microtiter plates were sprayed with aqueous test solutions prepared from 10,000 ppm DMSO stock solutions. After drying the leaves were infested with N2 nymphs. The samples were assessed for mortality and growth inhibition in comparison to untreated samples 5 days after infestation.

[2] = system: Plutella xylostella (Diamond Back Moth); test: Plutella xylostella (diamond back moth), treated artificial diet, eggs; conditions: 192 h, application rate 200 ppm, 8 days after infestation, read-out: effect in at least one of the two categories (mortality or growth inhibition)
Protocol: Plutella xylostella (Diamond Back Moth)
24-well microtiter plates with artificial diet were treated with aqueous test solutions prepared from 10,000 ppm DMSO stock solutions by pipetting. After drying, Plutella eggs were pipetted through a plastic stencil onto a gel blotting paper and the plate was closed with it. The samples were assessed for mortality and growth inhibition in comparison to untreated samples 8 days after infestation.

[3] = system: Spodoptera littoralis (Egyptian Cotton Leaf Worm); test: Spodoptera littoralis (Egyptian cotton leaf worm), cotton leaf discs, L1 larvae; conditions: foliar, 72 h, application rate 200 ppm, 3 days after infestation
Protocol: Spodoptera littoralis (Egyptian Cotton Leaf Worm)
Cotton leaf discs were placed onto agar in 24-well microtiter plates and sprayed with aqueous test solutions prepared from 10,000 ppm DMSO stock solutions. After drying the leaf discs were infested with five L1 larvae. The samples were assessed for mortality, anti-feeding effect, and growth inhibition in comparison to untreated samples 3 days after infestation. Control of Spodoptera littoralis by a test sample is given when at least one of the categories mortality, anti-feedant effect, and growth inhibition is higher than the untreated sample.

CCOCN(C(=O)c1ccc(C2=NO[C@@](c3cc(Cl)c(F)c(Cl)c3)(C(F)(F)F)C2)cc1C)C1CN(S(=O)(=O)C(F)F)C1 [Compound A3, 4-[(5S)-5-(3,5-dichloro-4-fluoro-phenyl)-5-(trifluoromethyl)-4H-isoxazol-3-yl]-N-[1-(difluoromethylsulfonyl)azetidin-3-yl]-N-(ethoxymethyl)-2-methyl-benzamide]
≥ 80%: percent effect (mortality or growth inhibition) at 200 ppm [1] | percent effect (mortality or growth inhibition) at 200 ppm [2] | percent control (mortality, anti-feedant effect or growth inhibition) at 200 ppm [3]
